Test results reported in PMC3523740 (Chemistry & biodiversity, 2012).
Where two headings read alike, the source gives them in different places.

Key:
(M0)NP2 [1] = settings: read-out: Kd^Hm (nM) at pH 5.5; cited from earlier work
NP2(D1A) [2] = settings: read-out: Kd^Hm (nM) at pH 7.5; cited from earlier work
NP2(D1A) [3] = settings: read-out: Kd^Hm (nM) at pH 5.5; cited from earlier work
(M0)NP2 [4] = settings: read-out: Kd^Hm (nM) at pH 7.5; cited from earlier work
[5] = Kinetics of nitric oxide release; type: binding
[6] = Nitric oxide dissociation constant of the Fe; type: binding; settings: pH 5.0, 27 °C
[7] = Stopped-flow kinetics of histamine binding and release; settings: pH 5.5, calculated from Kd = koff/kon
[8] = read-out: Kd^NO at pH 7.5, nitric oxide; cited from earlier work
[9] = histamine, cited from earlier work

Molecule	Kd ((M0)NP2 [1])	Kd (NP2(D1A) [2])	Kd (NP2(D1A) [3])	Kd ((M0)NP2 [4])	kon^NO at pH 5.0 ([5]; pH 5.0, 27 °C)	koff^NO at pH 5.0 ([5]; pH 5.0, 27 °C, displacement by histamine, this work)	koff^NO at pH 7.5 ([5]; pH 7.5, 27 °C, displacement by histamine, this work)	kon^NO at pH 7.5 ([5]; pH 7.5, calculated from Kd = koff/kon)	Kd^NO at pH 5.0 [6]	kon^Hm at pH 5.5 [7]	Kd [8]	koff^Hm at pH 5.5 ([9]; pH 5.5)	koff^Hm at pH 7.5 ([9]; pH 7.5)	kon^Hm at pH 7.5 ([9]; pH 7.5)
(M0)NP2: Recombinant nitrophorin 2 expressed in E. coli retaining methionine-0 from the start codon (N-terminus MDC…)					Too large to meas.	0.049 ± 0.002 ^TW s^−1	0.161 ± 0.005 ^TW s^−1	32.3 ± 6.5 ^a μM^−1s^−1	Too small to meas.	0.7 ± 0.1 ^a μM^−1s^−1	5 ± 1 nM	0.163 ± 0.011 ^b s^−1	0.056 ± 0.003 ^b s^−1	4.5 ± 0.1 ^b μM^−1s^−1
